Data published in article PMC3892053, “Pharmacokinetic/pharmacodynamic modeling for the determination of a cimicoxib dosing regimen in the dog” (BMC Veterinary Research, 2013).
In brackets after ≈: the same amount, converted by molar mass. Where two headings read alike, the source gives them in different places.

How the values were obtained:
[1] = tested on: kaolin-induced paw inflammation; experiment: PK/PD modelling (indirect response models) of kaolin paw inflammation endpoints; assay type: in vivo, dog; details: for EC50 at 2 mg/kg / IC50 at 2 mg/kg: po; for EC50 at 2 mg/kg: read-out: EC50, body temperature
Procedure: Pharmacokinetic and PK/PD modeling were performed by least-squares regression analysis using WinNonlin Professional software (WinNonlin® software, version 4.0.1, Pharsight Corporation, Mountain View, Ca, USA). For PK analysis, individual plasma cimicoxib concentrations were fitted to polyexponential equations. The data points were weighted by the inverse of the squared-fitted value. The number of exponential (2 or 3) terms needed to obtain the best fit for each data set was determined by the Akaike’s information criteria and by inspecting the plot of residuals. A biexponential equation corresponding to a mono-compartmental model for extravascular administration with a lag-time was selected (Equation 1).
As the effect cimicoxib on the local temperature and paw oedema after inflammation were present but lower than the other effects, these endpoints were not used for the PK/PD analysis. […] Finally, four endpoints were considered as suitable for the PK/PD analysis aiming at modelling the relationship between cimicoxib plasma concentrations and its antipyretic and anti-inflammatory effects, namely: body temperature (antipyretic effect), creeping speed, vertical force of the paw and clinical lameness score (anti-inflammatory effects).
The selected PK/PD models were of the class of the indirect response models as proposed by Dayneka. In these models, the measured response (R) is assumed to result from factors controlling either the development (Kin) or the dissipation (Kout) of the response according to Equation 3.
where dR/dt is the rate of change of the response over time, Kin represents the zero-order rate constant for production of the response and Kout the first-order rate constant for loss of the response. The time development of measured response was modeled by a sigmoid-Emax (maximum stimulatory effect) or sigmoid-Imax (maximum inhibition effect) function (Hill models) that can be exerted either on Kin or Kout. […] The effect of cimicoxib on the central temperature was based on a model assuming that during the inflammation phase, thermogenesis is increased (increase in Kin) while thermolysis is reduced (reduction in Kout) until a new balance for central temperature is reached. The antipyretic effect of an NSAID consisted of an increase in thermolysis (increase of Kout) enabling the central temperature to return to its control values, according to Equation 4:
(4) dR/dT=Kin-Kout×1+Emax×C^n/EC50^n+C^n×R
For the creeping test consisting of crossing the tunnel more or less rapidly, an empirical model postulating that the dog’s speed (m.s^-1) is the result of a balance between its motivation to move forward (Kin) and a braking effect (Kout) associated with the severity of inflammation with a lower Kout in control conditions than during inflammation. During inflammation, pain increases the braking effect (i.e. increase Kout) and decreases the speed to cross the tunnel. The anti-inflammatory effect of cimicoxib consisted in reducing the pain (by decreasing Kout), which in turn increased the speed to cross the tunnel as described by Equation 5:
(5) dR/dT=Kin-Kout×1-Imax×C^n/IC50^n+C^n×R
For the vertical force measured with the force plate apparatus normalized by the weight of the dog (without units), Kin represents the ground reaction forces in control resting conditions and Kout represents the factors prompting the withdrawal of limb from the ground in the case of inflammation due to pain i.e. that Kout is increased in the case of inflammation. Thus, the anti-inflammatory effect of cimicoxib consisted in a reduction of pain (decrease of Kout) and the same model as for the creeping speed under the tunnel was used (see Equation 5).
During inflammation, Kin is increased and the effect of cimicoxib was modelled using a concentration-dependent inhibition of Kin, according to Equation 6:
(6) dR/dT=Kin×1-C^n/IC50^n+C^n-Kout×R

[2] = tested on: kaolin-induced paw inflammation; experiment: Simulation of dose-effect relationship with the PK/PD model (EM dog parameters); details: simulated, oral, dose-linearity assumed
Procedure: For higher cimicoxib doses, only the duration of the maximum effect was increased. […] Figure 6 Simulated values of the effects of the cimicoxib for different oral doses of cimicoxib for the 4 endpoints modeled using a PK/PD model in the 8 extensive metabolizer dogs. Effects of cimicoxib vs. time (h) were simulated using the corresponding PK/PD model for different oral doses of cimicoxib (from 0.1 to 8 mg/kg) on the rectal temperature (°C), the normalized vertical ground reaction force of the paw, the creeping speed (m/s) and the overall clinical lameness score. PK and PD parameters used for simulations were the means of those obtained in the 8 extensive metabolizer dogs. The thick line was obtained with 2 mg/kg, the dose that has been selected for confirmatory clinical trials.

[3] = parameters: method as in Vetoquinol, unpublished results; details: non-linear disposition, ref Vetoquinol, unpublished results, cited from earlier work
[4] = plasma concentration, oral 2 mg/kg, PM dogs, mean and range, 2 mg/kg

EC50 ([1]; Canis lupus familiaris, abstract, value matches EM dogs, read-out: plasma concentration corresponding to half the maximum of the indirect effect, body temperature): 0.193 µg/mL (≈ 0.505 µM)
IC50 ([1]; Canis lupus familiaris, abstract, value matches EM dogs, read-out: plasma concentration corresponding to half the maximum of the indirect effect, creeping speed): 0.239 µg/mL (≈ 0.626 µM)
IC50 ([1]; Canis lupus familiaris, abstract, value matches EM dogs, read-out: plasma concentration corresponding to half the maximum of the indirect effect, ground reaction vertical force): 0.161 µg/mL (≈ 0.422 µM)
IC50 ([1]; Canis lupus familiaris, abstract, value matches EM dogs, read-out: plasma concentration corresponding to half the maximum of the indirect effect, lameness score): 0.284 µg/mL (≈ 0.744 µM)
EC50 at 2 mg/kg ([1]; Canis lupus familiaris, plasma concentration, oral 2 mg/kg, EM dogs, mean and range): 0.193 µg/mL (≈ 0.506 µM)
IC50 at 2 mg/kg ([1]; Canis lupus familiaris, plasma concentration, oral 2 mg/kg, EM dogs, mean and range, read-out: IC50, creeping speed): 0.239 µg/mL (≈ 0.627 µM)
IC50 at 2 mg/kg ([1]; Canis lupus familiaris, plasma concentration, oral 2 mg/kg, EM dogs, mean and range, read-out: IC50, lameness score): 0.284 µg/mL (≈ 0.745 µM)
IC50 at 2 mg/kg ([1]; Canis lupus familiaris, plasma concentration, oral 2 mg/kg, EM dogs, mean and range, read-out: IC50, vertical force): 0.161 µg/mL (≈ 0.421 µM)
EC50 at 2 mg/kg ([1]; Canis lupus familiaris, plasma concentration, oral 2 mg/kg, PM dogs, mean and range): 0.473 µg/mL (≈ 1.24 µM)
IC50 at 2 mg/kg ([1]; Canis lupus familiaris, plasma concentration, oral 2 mg/kg, PM dogs, mean and range, read-out: IC50, creeping speed): 0.345 µg/mL (≈ 0.902 µM)
IC50 at 2 mg/kg ([1]; Canis lupus familiaris, plasma concentration, oral 2 mg/kg, PM dogs, mean and range, read-out: IC50, lameness score): 0.786 µg/mL (≈ 2.06 µM)
IC50 at 2 mg/kg ([1]; Canis lupus familiaris, plasma concentration, oral 2 mg/kg, PM dogs, mean and range, read-out: IC50, vertical force): 0.325 µg/mL (≈ 0.851 µM)
IC50, lameness score [1, 4]: 785.8 [579.4, 916.1] ng/mL
IC50, vertical force [1, 4]: 325.1 [235.3, 397.6] ng/mL
SMILES: COc1ccc(-c2c(Cl)ncn2-c2ccc(S(N)(=O)=O)cc2)cc1F [cimicoxib]
Emax, body temperature ([1]; EM dogs, mean and range): 0.04 [0.03, 0.06] no unit
Imax, creeping speed ([1]; EM dogs, mean and range): 0.71 [0.38, 1.00] no unit
Imax, vertical force ([1]; EM dogs, mean and range): 0.98 [0.93, 1.00] no unit
Kin, body temperature ([1]; EM dogs, mean and range): 41.30 [20.76, 84.13] °C.h^-1
Kin, creeping speed ([1]; EM dogs, mean and range): 0.90 [0.15, 2.71] m.s^-1.h^-1
Kin, lameness score ([1]; EM dogs, mean and range): 5.34 [1.17, 16.87] score.h^-1
Kin, vertical force ([1]; EM dogs, mean and range): 0.09 [0.06, 0.10] normalised force.h^-1
Kout, body temperature ([1]; EM dogs, mean and range): 1.04 [0.53, 2.10] h^-1
Kout, creeping speed ([1]; EM dogs, mean and range): 0.95 [0.24, 2.02] h^-1
Kout, lameness score ([1]; EM dogs, mean and range): 1.08 [0.22, 3.54] h^-1
Kout, vertical force ([1]; EM dogs, mean and range): 7.40 [3.21, 10.00] h^-1
Emax, body temperature ([1]; PM dogs, mean and range): 0.04 [0.03, 0.04] no unit
Imax, creeping speed ([1]; PM dogs, mean and range): 0.70 [0.44, 0.87] no unit
Imax, vertical force ([1]; PM dogs, mean and range): 0.97 [0.95, 0.99] no unit
Kin, body temperature ([1]; PM dogs, mean and range): 45.84 [42.76, 49.19] °C.h^-1
Kin, creeping speed ([1]; PM dogs, mean and range): 0.76 [0.36, 0.97] m.s^-1.h^-1
Kin, lameness score ([1]; PM dogs, mean and range): 2.57 [0.70, 4.96] score.h^-1
Kin, vertical force ([1]; PM dogs, mean and range): 0.09 [0.07, 0.10] normalised force.h^-1
Kout, body temperature ([1]; PM dogs, mean and range): 1.17 [1.09, 1.25] h^-1
Kout, creeping speed ([1]; PM dogs, mean and range): 1.07 [0.80, 1.47] h^-1
Kout, lameness score ([1]; PM dogs, mean and range): 0.509 [0.14, 0.99] h^-1
Kout, vertical force ([1]; PM dogs, mean and range): 8.47 [5.09, 9.99] h^-1
dose predicted to give a nearly maximal effect, creeping speed [2]: 1.5 mg/kg
dose predicted to give a nearly maximal effect, ground reaction vertical force [2]: 3 mg/kg
dose predicted to give a nearly maximal effect, overall clinical lameness score [2]: 2 mg/kg
dose predicted to give a nearly maximal effect, rectal temperature [2]: 1 mg/kg
dose of the simulations to which observed plasma concentrations correspond ([3]; oral dose of 1 mg/kg): 1.46 mg/kg
dose of the simulations to which observed plasma concentrations correspond ([3]; oral dose of 4 mg/kg): 3.18 mg/kg
